In patent EP4342530A1, “SORTILIN MODULATORS” (Insusense ApS, priority 2022, dated 2024):
Where “and” joins values, the source holds several entries; their conditions need not be identical. Equal values may be shown once.

Columns and labels:
in vitro [1] = type: in vitro ADME; conditions: mouse, plasma, pH 7.4
Protocol: (§1) Plasma protein binding and brain homogenate binding for study compounds in mouse, dog, and rat by rapid equilibrium dialysis
(§2) In practice, unbound fractions in plasma and brain tissue were assessed using rapid equilibrium dialysis in vitro. Separately a pharmacokinetic study was run in vivo whereby a dose of the compound of interest was given at T=0 hours and at subsequent timepoints (eg 0.5, 1 and 4 hours) plasma and separately brain samples were analysed for total concentration of the compound of interest. These total concentrations could then be adjusted with the unbound fraction to give the unbound concentrations in the plasma and brain.
(§3) The test compounds were incubated in plasma and brain homogenate from the relevant species at 37 °C in RED device with inserts (8K MWCO, Thermo scientific) for 4 hours at 5 µM in triplicates. 350 µL of 150 mM phosphate buffered saline (PBS, pH 7.4) was used as the receiver side solutions. […] After 10-minute centrifugation at 13 200 rpm, the sample supernatants were analysed with an LC-MS/MS, to obtain the unbound fraction of the test compound (Fub). The unbound fraction was calculated from the peak area ratios obtained for each matrix: Fub = CPBS /Cplasma; [formula] where CPBS and Cplasma are the analyte concentrations in PBS (receiver) and plasma (donor), respectively. […]

in vitro [2] = type: in vitro ADME; conditions: mouse, brain homogenate, pH 7.4
Protocol: as §1, §2, §3

in vivo = conditions: male, CD1 (ICR), mouse
Protocol: (§4) The compound is administered to the animal in a suitable vehicle at T=0 hours. At 0.5 hours post administration plasma and separately brain are removed, prepared and analysed for total compound concentration.
(§5) Temperature: 45 °C Injection Volume: 1.5 µl for brain, 4 µl for plasma Ion Source: ESI+, SRM detection
(§6) The unbound partition coefficient (Kpuu) was determined as a ratio between the free compound concentrations in plasma and brain: Kpuu = (Cub,brain)/(Cub,plasma) [formula]
(§7) Where Cu,brain = unbound concentration in brain (C × Fub, brain); wherein • C = concentration at steady state; and • Cub,plasma = unbound concentration in plasma (C × Fub).

[3] = Blood-brain-barrier permeability in mice after IV administration; conditions: 3 mg/kg intravenously, 0.5 hours after dosing
Protocol: as §4, §5, §6, §7

Cc1cccc(NC(=O)c2ccc(C(F)(F)F)cc2C(=O)O)n1 [Comparative Example 1]
fraction unbound at 4 h, 5 µM (in vitro [1]): 0.068
fraction unbound at 4 h, 5 µM (in vitro [2]): 0.273
Kp uu at 0.5 h (in vivo): < 0.1
Kp at 0.5 h (in vivo; 3 mg/kg): < 0.01
concentration at 0.5 h (in vivo; 3 mg/kg): 3090 ng/mL and 5 ng/g
Brain to plasma ratio % [3]: <1%
